The record followed here is US20040147527A1, “Methods of use of gemifloxacin compounds against fluoroquinolone resistant Streptococcus pneumoniae bacteria” (priority 1999, published 2004).

Test [1] deals with S. pneumoniae with reduced susceptibility to CIP. Nature of the test: MIC by NCCLS microbroth dilution, 80 clinical isolates with CIP MIC ≧2 μg/ml. In kind it is cell-based. Particulars: Streptococcus pneumoniae. On the procedure: Topoisomerase IV (parC) and DNA gyrase (gyrA) mutations were confirmed by sequencing the QRDR region of each gene. Serotyping and PFGE were performed on all isolates. […] Breakpoints have not been established for all fluoroquinolones, thus percentage resistance was not calculated.

For test [2], the system named is S. pneumoniae (CFX and TFX susceptible and resistant clinical isolates). Put plainly: Postantibiotic effect (PAE), viable colony counting technique. In kind it is cell-based, Streptococcus pneumoniae. On the procedure:
This invention was based, in part, on analyses evaluating the comparative activity of gemifloxacin against various strains of S. pneumoniae. An objective of these analyses was to determine the postantibiotic effect (herein “PAE”) of GFX in CFX and TFX susceptible and resistant S. pneumoniae.
CFX resistant clinical isolates of S. pneumoniae were collected from across Canada. MICs were determined using a microbroth dilution technique described by the NCCLS. Topisomerase IV (parC) and DNA gyrase (gyrA) mutations were confirmed by sequencing the QRDR region of each gene. Two fluoroquinolone susceptible and 8 resistant isolates (3 CFX resistant. 5 CFX, TFX resistant) were selected for study. […] Antibiotics were removed using dilution into sterile media and the PAE assessed using a viable colony counting technique.

Converted amounts (≈) assume the structure as drawn.

Regarding `Cc1c(F)c(N2CCNC(C)C2)cc2c1c(=O)c(C(=O)O)cn2C1CC1` (centres unmarked) [GRE, grepafloxacin], in test [1], the minimum inhibitory concentration (MIC) lay within 0.12 to 8 µg/mL (≈ 0.334 to 22.3 µM), the MIC50 came out at 0.5 µg/mL (≈ 1.39 µM) and the MIC90 amounted to 8 µg/mL (≈ 22.3 µM).
The matching figures for `COc1c(N2C[C@@H]3CCCN[C@@H]3C2)c(F)cc2c(=O)c(C(=O)O)cn(C3CC3)c12` [MOX, moxifloxacin]: 0.12 to 4 µg/mL (≈ 0.299 to 9.96 µM), 0.25 µg/mL (≈ 0.623 µM) and 2 µg/mL (≈ 4.98 µM).
`CO/N=C1\CN(c2nc3c(cc2F)c(=O)c(C(=O)O)cn3C2CC2)CC1CN` (racemic) [GFX, (R,S)-7-(3-aminomethyl-4-methoxyiminopyrrolidin-1-yl)-1-cyclopropyl-6-fluoro-4-oxo-1,4-dihydro-1,8-naphthyridine-3-carboxylic acid]: the “mean PAE” value in test [2] (GFX, 4× MIC for 2 hours) worked out at 2.7 h. Further, the “mean PAE” value in test [2] (GFX, 10× MIC for 2 hours) is 3.8 h. Further, in test [2] (p<0.05), the “difference in duration of PAE between CFX or TFX susceptible and resistant strains” value was “no significant difference”. In test [1], this compound yielded an MIC of 0.03 to 5 µg/mL (≈ 0.077 to 12.8 µM), an MIC50 of 0.06 µg/mL (≈ 0.154 µM) and an MIC90 of 0.25 µg/mL (≈ 0.642 µM).
For the compound `N[C@@H]1[C@H]2CN(c3nc4c(cc3F)c(=O)c(C(=O)O)cn4-c3ccc(F)cc3F)C[C@@H]12` [TFX, trovafloxacin], the “mean PAE” value in test [2] (TFX susceptible isolates, 4× MIC for 2 hours) was determined as 2.1 h. Also, in test [2] (TFX susceptible isolates, 10× MIC for 2 hours), the “mean PAE” value stood at 3.2 h. In test [1], this compound displayed a minimum inhibitory concentration (MIC) of 0.06 to 8 µg/mL (≈ 0.144 to 19.2 µM), an MIC50 of 0.5 µg/mL (≈ 1.2 µM) and an MIC90 of 4 µg/mL (≈ 9.61 µM).
Regarding `C[C@@H]1CN(c2c(F)c(N)c3c(=O)c(C(=O)O)cn(C4CC4)c3c2F)C[C@H](C)N1` [SPA, sparfloxacin], in test [1], the minimal inhibitory concentration (MIC) was 0.25 to 32 µg/mL (≈ 0.637 to 81.5 µM), the MIC50 was 0.5 µg/mL (≈ 1.27 µM) and the MIC90 was found to be 16 µg/mL (≈ 40.8 µM).
In test [1], `C[C@H]1COc2c(N3CCN(C)CC3)c(F)cc3c(=O)c(C(=O)O)cn1c23` [LEV, levofloxacin] gave an MIC of 1 to 32 µg/mL (≈ 2.77 to 88.6 µM), an MIC50 of 2 µg/mL (≈ 5.53 µM) and an MIC90 of 16 µg/mL (≈ 44.3 µM).
In the same order, the values of `COc1c(N2CCNC(C)C2)c(F)cc2c(=O)c(C(=O)O)cn(C3CC3)c12` (centres unmarked) [GAT, gatifloxacin] are 0.25 to 8 µg/mL (≈ 0.666 to 21.3 µM), 0.5 µg/mL (≈ 1.33 µM) and 4 µg/mL (≈ 10.7 µM).
